Measurements as given in patent publication US12319640B2, “Cyclic diones as herbicidal compounds” (SYNGENTA CROP PROTECTION AG, priority 2019, dated 2025).

Tests used:
Assay in all cases: Glasshouse herbicide test, pre- and post-emergence
Assay type in all cases: in vivo
[1] = tested on: Alopecurus myosuroides (ALOMY); details: 250 g/h, evaluated after 13 days, five-point scale; for percentage damage caused to the plant, ALOMY POST: post-emergence; for percentage damage caused to the plant, ALOMY PRE: pre-emergence
How it was run: (§1)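 Spraying at 250 g/h took place either pre-emergence (one day after sowing) or post-emergence (after eight days' cultivation). Percentage damage was evaluated 13 days afterwards and binned into five classes, 1=0-19% up to 5=80-100%.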

[2] = tested on: Avena fatua (AVEFA); details: 250 g/h, evaluated after 13 days, five-point scale; for percentage damage caused to the plant, AVEFA POST: post-emergence; for percentage damage caused to the plant, AVEFA PRE: pre-emergence
How it was run: as §1

[3] = tested on: Echinochloa crus-galli (ECHCG); details: 250 g/h, evaluated after 13 days, five-point scale; for percentage damage caused to the plant, ECHCG POST: post-emergence; for percentage damage caused to the plant, ECHCG PRE: pre-emergence
How it was run: as §1

[4] = tested on: Lolium perenne (LOLPE); details: 250 g/h, evaluated after 13 days, five-point scale; for percentage damage caused to the plant, LOLPE POST: post-emergence; for percentage damage caused to the plant, LOLPE PRE: pre-emergence
How it was run: as §1

[5] = tested on: Setaria faberi (SETFA); details: 250 g/h, evaluated after 13 days, five-point scale; for percentage damage caused to the plant, SETFA POST: post-emergence; for percentage damage caused to the plant, SETFA PRE: pre-emergence
How it was run: as §1

Compound	percentage damage caused to the plant, ALOMY POST [1]	percentage damage caused to the plant, ALOMY PRE [1]	percentage damage caused to the plant, AVEFA POST [2]	percentage damage caused to the plant, AVEFA PRE [2]	percentage damage caused to the plant, ECHCG POST [3]	percentage damage caused to the plant, ECHCG PRE [3]	percentage damage caused to the plant, LOLPE POST [4]	percentage damage caused to the plant, LOLPE PRE [4]	percentage damage caused to the plant, SETFA POST [5]	percentage damage caused to the plant, SETFA PRE [5]
CC#Cc1cc(C)c(C2C(=O)CC3(CCC(NC(=O)c4ccc(OC)nn4)CC3)CC2=O)c(C)c1 (centres unmarked) [Compound 2.014]	5 (5=80-100%)	5 (5=80-100%)	5 (5=80-100%)	5 (5=80-100%)	5 (5=80-100%)	5 (5=80-100%)	5 (5=80-100%)	5 (5=80-100%)	5 (5=80-100%)	5 (5=80-100%)
CC#Cc1cc(C)c(C2C(=O)CC3(CCC(NC(=O)c4nccnc4C)CC3)CC2=O)c(C)c1 (centres unmarked) [Compound 2.015]	5 (5=80-100%)	4 (4=60-79%)	5 (5=80-100%)	5 (5=80-100%)	5 (5=80-100%)	5 (5=80-100%)	5 (5=80-100%)	5 (5=80-100%)	5 (5=80-100%)	5 (5=80-100%)
CC#Cc1cc(C)c(C2C(=O)CC3(CCC(NC(=O)c4cnco4)CC3)CC2=O)c(C)c1 (centres unmarked) [Compound 2.016]	4 (4=60-79%)	3 (3=40-59%)	5 (5=80-100%)	4 (4=60-79%)	5 (5=80-100%)	5 (5=80-100%)	5 (5=80-100%)	5 (5=80-100%)	5 (5=80-100%)	5 (5=80-100%)
CC#Cc1cc(C)c(C2C(=O)CC3(CCC(NC(=O)[C@H](C)O)CC3)CC2=O)c(C)c1 (some centres unmarked) [Compound 2.017]	5 (5=80-100%)	4 (4=60-79%)	5 (5=80-100%)	4 (4=60-79%)	5 (5=80-100%)	5 (5=80-100%)	5 (5=80-100%)	4 (4=60-79%)	5 (5=80-100%)	5 (5=80-100%)
CC#Cc1cc(C)c(C2C(=O)CC3(CCC(NC(=O)c4ccnc(F)c4)CC3)CC2=O)c(C)c1 (centres unmarked) [Compound 2.018]	5 (5=80-100%)	4 (4=60-79%)	5 (5=80-100%)	5 (5=80-100%)	5 (5=80-100%)	5 (5=80-100%)	5 (5=80-100%)	5 (5=80-100%)	5 (5=80-100%)	5 (5=80-100%)
CC#Cc1cc(C)c(C2C(=O)CC3(CCC(NC(=O)c4ccccc4)CC3)CC2=O)c(C)c1 (centres unmarked) [Compound 2.019]	5 (5=80-100%)	5 (5=80-100%)	5 (5=80-100%)	5 (5=80-100%)	5 (5=80-100%)	5 (5=80-100%)	5 (5=80-100%)	5 (5=80-100%)	5 (5=80-100%)	5 (5=80-100%)
CC#Cc1cc(C)c(C2C(=O)CC3(CCC(NC(=O)COC)CC3)CC2=O)c(C)c1 (centres unmarked) [Compound 2.020]	5 (5=80-100%)	5 (5=80-100%)	5 (5=80-100%)	5 (5=80-100%)	5 (5=80-100%)	5 (5=80-100%)	5 (5=80-100%)	5 (5=80-100%)	5 (5=80-100%)	5 (5=80-100%)
CC#Cc1cc(C)c(C2C(=O)CC3(CCC(NC(=O)NC(C)(C)C)CC3)CC2=O)c(C)c1 (centres unmarked) [Compound 2.021]	5 (5=80-100%)	5 (5=80-100%)	5 (5=80-100%)	4 (4=60-79%)	5 (5=80-100%)	5 (5=80-100%)	5 (5=80-100%)	5 (5=80-100%)	5 (5=80-100%)	5 (5=80-100%)
CC#Cc1cc(C)c(C2C(=O)CC3(CCC(NC(=O)NC(=O)C(C)(C)C)CC3)CC2=O)c(C)c1 (centres unmarked) [Compound 2.022]	5 (5=80-100%)	5 (5=80-100%)	5 (5=80-100%)	3 (3=40-59%)	5 (5=80-100%)	5 (5=80-100%)	5 (5=80-100%)	5 (5=80-100%)	5 (5=80-100%)	5 (5=80-100%)
CC#Cc1cc(C)c(C2C(=O)CC3(CCC(NC(=O)NC(=O)c4ccccn4)CC3)CC2=O)c(C)c1 (centres unmarked) [Compound 2.023]	5 (5=80-100%)	5 (5=80-100%)	5 (5=80-100%)	4 (4=60-79%)	5 (5=80-100%)	5 (5=80-100%)	5 (5=80-100%)	5 (5=80-100%)	5 (5=80-100%)	5 (5=80-100%)
CC#Cc1cc(C)c(C2C(=O)CC3(CCC(NC(C)=O)C3)CC2=O)c(C)c1 (centres unmarked) [Compound 2.024]	5 (5=80-100%)	5 (5=80-100%)	5 (5=80-100%)	5 (5=80-100%)	5 (5=80-100%)	5 (5=80-100%)	5 (5=80-100%)	5 (5=80-100%)	5 (5=80-100%)	5 (5=80-100%)
CC#Cc1cc(C)c(C2C(=O)CC3(CC2=O)CC(NC(C)=O)C3)c(C)c1 (centres unmarked) [Compound 2.025]	5 (5=80-100%)	5 (5=80-100%)	5 (5=80-100%)	5 (5=80-100%)	5 (5=80-100%)	5 (5=80-100%)	5 (5=80-100%)	5 (5=80-100%)	5 (5=80-100%)	5 (5=80-100%)
CC(=O)NC1CCC2(CC1)CC(=O)C(c1c(C)cc(-c3ccc(F)cc3)cc1C)C(=O)C2 (centres unmarked) [Compound 2.027]	5 (5=80-100%)	3 (3=40-59%)	5 (5=80-100%)	4 (4=60-79%)	5 (5=80-100%)	2 (2=20-39%)	5 (5=80-100%)	4 (4=60-79%)	5 (5=80-100%)	5 (5=80-100%)
CC(=O)NC1CCC2(CC1)CC(=O)C(c1c(C)cc(-c3ncc(F)cn3)cc1C)C(=O)C2 (centres unmarked) [Compound 2.028]	5 (5=80-100%)	5 (5=80-100%)	5 (5=80-100%)	4 (4=60-79%)	5 (5=80-100%)	5 (5=80-100%)	5 (5=80-100%)	5 (5=80-100%)	5 (5=80-100%)	5 (5=80-100%)
